The text below walks through data of US9388444B2, “Use of glucosyltransferase gene” (The United States of America, as represented by the …, priority 2013, dated 2016).

One data set concerns Gtf-1. The data set can be described thus: In vitro HPLC-MS glucosyltransferase activity assay with sonicated extract of recombinant S. cerevisiae [pYES2/NT/gft1]. The data set is classed as biochemical, C. bombicola. The conditions noted are these: for glucosyltransferase enzyme activity toward lipid substrate (appearance of glucoside product): UDP-glucose as sugar substrate, 30° C., 3 hours, HPLC-MS, product absent with control [pYES2/NT/lacZ] extract; for effect of lipid stock solvent on enzyme activity: solvent used to prepare 50 mM lipid stock solution. The procedure:
An in vitro enzyme activity assay is performed to verify the functional property of Gtf-1 expressed in the recombinant S. cereviciae [pYES2/NT/gft1]. In this plasmid, the expression of gtf-1 is regulated by a yeast GAL1 promoter that is inducible by the addition of galactose (FIG. 1). An HPLC-MS-based method is developed to assay for glucosyltransferase activity in recombinant S. cerevisiae expressing C. bombicola gft-1 gene cloned in the pYES2/NT/gft1 plasmid construct. As control samples, S. cerevisiae transformed with pYES2/NT/gft1CON and pYES2/NT/lacZ are included in the study. The growing and induction of S. cerevisiae cells is performed according to the protocol described in the manual of pYES2/NT Yeast Expression System (Invitrogen, Carlsbad, Calif.). Briefly, cells from long-term (−80° C.) storage stock cultures are streaked on Yeast Extract Peptone Dextrose (YPD) agar solid medium (1% w/v yeast extract, 2% w/v peptone, 2% w/v dextrose (D-(+)glucose), 2% w/v agar) and grown at 30° C. for 1 to 2 days. A single colony is picked to inoculate 5 ml of SC-U+Glu(2%) in a 25-ml Erlenmeyer flask. The culture is grown overnight at 30° C. and 200 rpm. A volume of the overnight culture, which is based on achieving a theoretical absorbance at 600 nm (A600 nm)=0.4 in the fresh culture, is added to 50 ml of SC-U+Raf(2%) medium in a 125-ml Erlenmeyer. After an overnight incubation (30° C., 200 rpm), A600 nm values of the cultures are recorded. Five ml of sterile 20% (w/v) D-(+)-galactose are added to each culture to induce expression of the cloned gene, and the cells are incubated for 4 hours at 30° C., 200 rpm. Cells are then harvested by centrifugation (Sorvall RC-5B Plus centrifuge; 5,000×g; 10 min; 4° C.) (ThermoFisher Scientific, Waltham, Mass.) with the supernatant being decanted. The pelleted cells are resuspended and washed with 5 ml cold water, undergo another centrifugation using same parameters with removal of the supernatant after centrifugation, and are resuspended in a volume of a Breaking Buffer (50 mM sodium phosphate at pH 7.4; 1 mM Na-EDTA; 5% v/v glycerol; 1 mM phenylmethylsulfonylfluoride (PMSF) which is added immediately before use) in 15-mL Corex centrifugation tube to give a theoretical A600 nm of 200. Cell suspension can be stored at −20° C. overnight and still retain glucosyltransferase activity. Cells are broken by sonication (Sonicator model W-385 equipped with a microtip probe; Heat-Systems, Inc., Farmingdale, N.Y.) for 10 to 15 seconds (with 30 seconds sample cooling on ice-water bath) at maximum probe-tolerant power setting. The sonicated cell suspension (SCS) is used in the reaction mixtures to assay for glycosylation activity.
The reaction mixture for glycosylation assay is largely based on that described by Saerens et al. 2011b. The following procedure is used: 10 μl of a 50 mM-lipid substrate stock solution (which is prepared in one of the following solvents: DMF (dimethylformamide), DMSO ([…]), THF (tetrahydrofuran), ethylacetate, or ethanol) and 10 μl of a 50 mM-UDP-glucose solution (Sigma Aldrich, St. Louis, Mo.) are added to 30 μl of 50 mM potassium phosphate buffer (pH 7.5) in a 13×100 mm test tube on ice. 200 μl of the sonicated cell suspension is then added to the mixture of the two substrates. The final reaction mixture (250 μl) is incubated at 30° C. for 3 hours with frequent manual mixing (approximately every 10-15 minutes). The reaction is stopped by the addition of 200 μl of 2N HCl, followed by vigorous vortex mixing for approximately 30 to 60 seconds. The reaction mixture is extracted with 1 to 2 ml 1:1 v/v ethylether/ethylacetate mixture by vigorous vortex mixing. The tube is placed on lab bench undisturbed for phase separation to occur. Using a Hamilton syringe, the organic phase (upper layer) is carefully removed and is placed into a clean test tube (12×75 mm). The solvent is then evaporated by passing a stream of nitrogen gas over the solution, leaving a dry residue. […]

For data set [1] the following is noted: aqueous solution of sophorolipid; cited from earlier work.

With 17-hydroxy-oleate [17-OH oleate], in the data set on Gtf-1, the “glucosyltransferase enzyme activity toward lipid substrate (appearance of glucoside product)” value is on record as “presence of glucosyltransferase enzyme activity is confirmed”.
On to `CN(C)C=O` [DMF, dimethylformamide], for which, in the data set with Gtf-1, the “effect of lipid stock solvent on enzyme activity” value is “without adversely impacting on enzymatic activity”.
On the same count and under the same terms, in the case of `C1CCOC1` [THF, tetrahydrofuran] it was “inhibits enzyme activity”.
In the case of `CC(C)CCC[C@@H](C)[C@H]1CC[C@H]2[C@@H]3CC=C4C[C@@H](O)CC[C@]4(C)[C@H]3CC[C@]12C` [cholesterol], the “glucosyltransferase enzyme activity toward lipid substrate (appearance of glucoside product)” value with Gtf-1 was “presence of glucosyltransferase enzyme activity is confirmed”.
`CC(C)[C@@H](C)/C=C/[C@@H](C)[C@H]1CC[C@H]2C3=CC=C4C[C@@H](O)CC[C@]4(C)[C@H]3CC[C@]12C` [ergosterol]: the “glucosyltransferase enzyme activity toward lipid substrate (appearance of glucoside product)” value in the data set with Gtf-1 is “give the same results”.
Still for that read-out and setting: in the case of `CC[C@H](/C=C/[C@@H](C)[C@H]1CC[C@H]2[C@@H]3CC=C4C[C@@H](O)CC[C@]4(C)[C@H]3CC[C@]12C)C(C)C` [stigmasterol] it was “give the same results”; in that of `CC[C@H](CC[C@@H](C)[C@H]1CC[C@H]2[C@@H]3CC=C4C[C@@H](O)CC[C@]4(C)[C@H]3CC[C@]12C)C(C)C` [β-sitosterol], “give the same results”.
In the case of sophorolipid, the Surface tension in data set [1] is recorded as 30-40 mN/m.
